Assay [1] addresses T1, human JAK1 (a.a. 837-1142) catalytic domain (Homo sapiens, UniProt P23458).
T1 construct: human JAK1 (a.a. 837-1142); His tag (N); made in house; host or cells: insect cells (baculovirus)
Put plainly: In vitro JAK kinase assay (HTRF, phosphorylation of biotinylated peptide), JAK1. It is filed as biochemical. The note with it: ATP 1 mM. Here is the method: Compounds herein were tested for inhibitory activity of JAK targets according to the following in vitro assay described in Park et al., Analytical Biochemistry 1999, 269, 94-104. The catalytic domains of human JAK1 (a.a. 837-1142) and JAK2 (a.a. 828-1132) with an N-terminal His tag were expressed using baculovirus in insect cells and purified. The catalytic activity of JAK1 and JAK2 was assayed by measuring the phosphorylation of a biotinylated peptide. The phosphorylated peptide was detected by homogenous time resolved fluorescence (HTRF). […] For the 1 mM IC50 measurements, ATP concentration in the reactions was 1 mM. Reactions were carried out at room temperature for 1 hour and then stopped with 20 μL 45 mM EDTA, 300 nM SA-APC, 6 nM Eu-Py20 in assay buffer (Perkin Elmer, Boston, Mass.). Binding to the Europium labeled antibody took place for 40 minutes and HTRF signal was measured on a Fusion plate reader (Perkin Elmer, Boston, Mass.). […] Data is indicated as ranges, wherein “+” is less than 5 nM; “++” is 5 nM to 25 nM; “+++” is greater than 25 nM to 100 nM; and “++++” is greater than 100 nM.

Assay [2] has as its target T2, JAK2 (a.a. 828-1132) catalytic domain (Homo sapiens, UniProt O60674).
T2 construct: JAK2 (a.a. 828-1132); His tag (N); made in house; host or cells: insect cells (baculovirus)
Put plainly: In vitro JAK kinase assay (HTRF, phosphorylation of biotinylated peptide), JAK2. In kind it is biochemical. The note with it: ATP 1 mM. Here is the method:
Compounds herein were tested for inhibitory activity of JAK targets according to the following in vitro assay described in Park et al., Analytical Biochemistry 1999, 269, 94-104. The catalytic domains of human JAK1 (a.a. 837-1142) and JAK2 (a.a. 828-1132) with an N-terminal His tag were expressed using baculovirus in insect cells and purified. The catalytic activity of JAK1 and JAK2 was assayed by measuring the phosphorylation of a biotinylated peptide. The phosphorylated peptide was detected by homogenous time resolved fluorescence (HTRF). […] For the 1 mM IC50 measurements, ATP concentration in the reactions was 1 mM. Reactions were carried out at room temperature for 1 hour and then stopped with 20 μL 45 mM EDTA, 300 nM SA-APC, 6 nM Eu-Py20 in assay buffer (Perkin Elmer, Boston, Mass.). Binding to the Europium labeled antibody took place for 40 minutes and HTRF signal was measured on a Fusion plate reader (Perkin Elmer, Boston, Mass.). See Tables A and B for data related to compounds of the invention (at 1 mM). Data is indicated as ranges, wherein “+” is less than 5 nM; “++” is 5 nM to 25 nM; “+++” is greater than 25 nM to 100 nM; and “++++” is greater than 100 nM.

The source of these data is patent US9034884B2, “Heterocyclic-substituted pyrrolopyridines and pyrrolopyrimidines as JAK inhibitors” (Incyte Corporation, priority 2010, dated 2015).

Each structure is given as a SMILES string.

T1 sequence (P23458 849-1154): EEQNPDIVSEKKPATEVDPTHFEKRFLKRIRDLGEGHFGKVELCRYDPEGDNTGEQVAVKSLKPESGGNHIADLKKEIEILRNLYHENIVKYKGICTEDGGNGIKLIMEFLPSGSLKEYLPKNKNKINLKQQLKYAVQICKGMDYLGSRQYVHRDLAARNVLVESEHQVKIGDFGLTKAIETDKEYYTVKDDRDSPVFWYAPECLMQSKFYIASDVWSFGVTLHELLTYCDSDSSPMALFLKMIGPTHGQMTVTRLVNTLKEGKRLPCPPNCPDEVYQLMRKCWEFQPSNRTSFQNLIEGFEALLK
T2 sequence (O60674 828-1132): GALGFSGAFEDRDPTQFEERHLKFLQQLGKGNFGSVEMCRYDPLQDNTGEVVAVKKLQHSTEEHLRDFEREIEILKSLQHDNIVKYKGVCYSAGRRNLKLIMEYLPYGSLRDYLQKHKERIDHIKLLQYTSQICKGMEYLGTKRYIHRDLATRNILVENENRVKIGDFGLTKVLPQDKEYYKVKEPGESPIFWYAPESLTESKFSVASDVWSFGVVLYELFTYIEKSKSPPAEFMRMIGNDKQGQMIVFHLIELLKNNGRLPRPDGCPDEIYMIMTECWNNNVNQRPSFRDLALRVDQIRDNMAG

With `N#CCC(CN1CCC(Oc2cc(F)cc(F)c2)CC1)n1cc(-c2ncnc3[nH]ccc23)cn1` (stereo not shown) [Example 1, 4-[4-(3,5-Difluorophenoxy)piperidin-1-yl]-3-[4-(7H-pyrrolo[2,3-d]pyrimidin-4-yl)-1H-pyrazol-1-yl]butanenitrile tris(trifluoroacetate)], the IC50 in assay [1] (Table A) fell in the range of 0.005 to 0.025 µM; in assay [2] (Table A), 0.025 to 0.1 µM.

Regarding `N#CCC(CN1CCC(Oc2cc(F)cc(C#N)c2)C(F)C1)n1cc(-c2ncnc3[nH]ccc23)cn1` (single isomer, unassigned) [Example 31 diastereomer 2, 3-[(1-{3-Cyano-2-[4-(7H-pyrrolo[2,3-d]pyrimidin-4-yl)-1H-pyrazol-1-yl]propyl}-3-fluoropiperidin-4-yl)oxy]-5-fluorobenzonitrile (two diastereomers)], the figures for the IC50 in assay [1] (Table B) and in assay [2] (Table B) were below 0.005 µM and 0.025 to 0.1 µM, respectively.

Take `N#CCC(CN1CCC(Oc2cc(F)cc(Cl)c2)CC1)n1cc(-c2ncnc3[nH]ccc23)cn1` (stereo not shown) [Example 2]: the IC50 in assay [1] (Table A) is below 0.005 µM; in assay [2] (Table A), 0.025 to 0.1 µM.

Take `N#CCC(CN1CCC(Oc2cc(F)cc(C#N)c2)CC1)n1cc(-c2ncnc3[nH]ccc23)cn1` (stereo not shown) [Example 6, 3-[(1-{3-Cyano-2-[4-(7H-pyrrolo[2,3-d]pyrimidin-4-yl)-1H-pyrazol-1-yl]propyl}piperidin-4-yl)oxy]-5-fluorobenzonitrile tris(trifluoroacetate)]: the IC50 in assay [1] (Table A) is below 0.005 µM; in assay [2] (Table A), 0.025 to 0.1 µM.

Consider `N#CCC(CN1CCC(Oc2cc(F)cc(CN3CCC3)c2)CC1)n1cc(-c2ncnc3[nH]ccc23)cn1` (stereo not shown) [Example 22], for which the IC50 in assay [1] (Table A) is below 0.005 µM; in assay [2] (Table A) it was 0.025 to 0.1 µM.

With `CC(C)NC(=O)c1cc(F)cc(OC2CCN(CC(CC#N)n3cc(-c4ncnc5[nH]ccc45)cn3)CC2)c1` (stereo not shown) [Example 11, 3-[(1-{3-Cyano-2-[4-(7H-pyrrolo[2,3-d]pyrimidin-4-yl)-1H-pyrazol-1-yl]propyl}piperidin-4-yl)oxy]-5-fluoro-N-isopropylbenzamide tris(trifluoroacetate)], the IC50 in assay [1] (Table A) is below 0.005 µM; in assay [2] (Table A), 0.005 to 0.025 µM.

For `C[C@@H]1CCCN1Cc1cc(F)cc(OC2CCN(CC(CC#N)n3cc(-c4ncnc5[nH]ccc45)cn3)CC2F)c1` (single isomer, unassigned) [Example 32 diastereomer 2], the IC50 in assay [1] (Table B) is below 0.005 µM; in assay [2] (Table B), 0.005 to 0.025 µM.

As for `N#CCC(CN1CCC(Oc2cc(F)cc(CN3CCC(F)(F)C3)c2)CC1)n1cc(-c2ncnc3[nH]ccc23)cn1` (stereo not shown) [Example 27, 4-(4-{3-[(3,3-difluoropyrrolidin-1-yl)methyl]-5-fluorophenoxy}piperidin-1-yl)-3-[4-(7H-pyrrolo[2,3-d]pyrimidin-4-yl)-1H-pyrazol-1-yl]butanenitrile], the concentration for half-maximal inhibition (IC50) in assay [1] (Table A) is 0.005 to 0.025 µM; in assay [2] (Table A), above 0.1 µM.

`N#CCC(CN1CCC(Oc2cc(F)cc(CN3CCOCC3)c2)CC1)n1cc(-c2ncnc3[nH]ccc23)cn1` (stereo not shown) [Example 26, 4-{4-[3-fluoro-5-(morpholin-4-ylmethyl)phenoxy]piperidin-1-yl}-3-[4-(7H-pyrrolo[2,3-d]pyrimidin-4-yl)-1H-pyrazol-1-yl]butanenitrile]: the concentration for half-maximal inhibition (IC50) in assay [1] (Table A) was 0.005 to 0.025 µM; in assay [2] (Table A), above 0.1 µM.

Consider `N#CCC(CN1CCC(Oc2cc(F)cc(C#N)c2)C(F)C1)n1cc(-c2ncnc3[nH]ccc23)cn1` (single isomer, unassigned) [Example 31 diastereomer 1, 3-[(1-{3-Cyano-2-[4-(7H-pyrrolo[2,3-d]pyrimidin-4-yl)-1H-pyrazol-1-yl]propyl}-3-fluoropiperidin-4-yl)oxy]-5-fluorobenzonitrile (two diastereomers)], for which the IC50 in assay [1] (Table B) was in the range of 0.005 to 0.025 µM; in assay [2] (Table B), 0.025 to 0.1 µM.

Regarding `C[C@H]1CCCN1Cc1cc(F)cc(OC2CCN(CC(CC#N)n3cc(-c4ncnc5[nH]ccc45)cn3)CC2)c1` (stereo partly drawn) [Example 29, 4-[4-(3-fluoro-5-{[(2S)-2-methylpyrrolidin-1-yl]methyl}phenoxy)piperidin-1-yl]-3-[4-(7H-pyrrolo[2,3-d]pyrimidin-4-yl)-1H-pyrazol-1-yl]butanenitrile], the IC50 was below 0.005 µM in assay [1] (Table A) and 0.025 to 0.1 µM in assay [2] (Table A).

For `N#CCC(CN1CCC(Oc2cc(F)c(F)c(F)c2)CC1)n1cc(-c2ncnc3[nH]ccc23)cn1` (stereo not shown) [Example 4, 3-[4-(7H-Pyrrolo[2,3-d]pyrimidin-4-yl)-1H-pyrazol-1-yl]-4-[4-(3,4,5-trifluorophenoxy)piperidin-1-yl]butanenitrile tris(trifluoroacetate)], the results for the IC50 in assay [1] (Table A) and in assay [2] (Table A) were 0.005 to 0.025 µM and 0.025 to 0.1 µM, respectively.

With `N#CCC(CN1CCC(Oc2cc(F)cc(C(=O)NCCC(N)=O)c2)CC1)n1cc(-c2ncnc3[nH]ccc23)cn1` (stereo not shown) [Example 14, N-(3-Amino-3-oxopropyl)-3-[1(1-{3-cyano-2-[4-(7H-pyrrolo[2,3-d]pyrimidin-4-yl)-1H-pyrazol-1-yl]propyl}piperidin-4-yl)oxy]-5-fluorobenzamide tris(trifluoroacetate)], the IC50 in assay [1] (Table A) is below 0.005 µM; in assay [2] (Table A), 0.005 to 0.025 µM.

Turning to `N#CCC(CN1CCC(Oc2cc(F)cc(C(=O)NC3CC3)c2)CC1)n1cc(-c2ncnc3[nH]ccc23)cn1` (stereo not shown) [Example 10, 3-[(1-{3-Cyano-2-[4-(7H-pyrrolo[2,3-d]pyrimidin-4-yl)-1H-pyrazol-1-yl]propyl}piperidin-4-yl)oxy]-N-cyclopropyl-5-fluorobenzamide], the values for the IC50 in assay [1] (Table A) and in assay [2] (Table A) were below 0.005 µM and 0.005 to 0.025 µM, respectively.
